According to patent US8815535B2, “Disk diffusion assay for oritavancin” (The Medicines Company, priority 2011, dated 2014):
Like-named read-outs stand apart in the source and are kept apart here.

Experiments:
[1] = tested on: MSSA ATCC 29213; assay: Disk diffusion assay (zone of inhibition); format: cell-based; conditions: Staphylococcus aureus; for zone of inhibition at 360 µg/disc: 360 μg in 5% P80, read-out: Zone diameter (mm ± SD); for zone of inhibition at 180 µg/disc: MSSA ATCC 29213, 180 μg oritavancin in 2.5% P80, read-out: Zone diameter
Text: (§1) The study was designed to identify conditions that improve oritavancin diffusion in agar and consequently yield a zone diameter ≧15 mm for the CLSI quality control strain MSSA ATCC 25923. Excipients that increased the disk diffusion of oritavancin in agar relative to disks containing only oritavancin were identified and selected for further study. […] A prediffusion step at room temperature was introduced to maximize oritavancin diffusion prior to initiation of bacterial growth. In this step, the antimicrobial disks were placed on agar plates seeded with a bacterial isolate and incubated at room temperature for 3 hours. Plates were then incubated overnight at 37° C. Zone diameters around the disks in which bacterial growth was inhibited were measured with a ruler and reported in millimeters.
(§2) Ethanol-sterilized Whatman paper disks (6 mm diameter) were allowed to dry then impregnated with 20 microliters of oritavancin solution containing total amounts ranging from 90 to 360 micrograms. Disks were allowed to dry at room temperature for various times prior to use.
(§3) Bacterial suspensions were prepared and adjusted to an optical density of 0.1 at 600 nm. Standard cation-adjusted Mueller Hinton agar plates (90 mm diameter) were seeded with bacterial suspensions by initially swabbing the center of plate then moving outward towards the edge. The plate was swabbed a second time, perpendicular to the orientation of the first swab. To assess the impact of prediffusion on diameter of inhibition zones, two disks were immediately placed on one half of the plate and the plate was incubated for 3 hours at room temperature. After 3 hours, two additional disks were placed on the other half of the plate then the plate was incubated overnight at 37° C. Zone diameters were measured with a ruler and reported in millimeters.
(§4) Oritavancin powder was dissolved in freshly-prepared solutions of the indicated excipients at concentrations of 0.625, 1.25, 2.5, 5, and 10 mg/ml (adjusted for potency based on lot 875561L00 purity of 83.1%) by vortexing for a minimum of 5 minutes. Oritavancin solutions in the various excipients, while not visually clear, were free from any apparent particulates as assessed visually. Sterile Oxoid blank disks were impregnated with 20 μl of these oritavancin solutions, resulting in oritavancin disk loads ranging from 12.5 to 200 μg. Unless indicated otherwise, disks were allowed to dry overnight at room temperature prior to use.
(§5) Bacterial suspensions from isolated colonies on overnight cation-adjusted Mueller Hinton agar plates were prepared in sterile saline and adjusted to an optical density of 0.1 at 600 nm Standard cation-adjusted Mueller Hinton agar plates (90 mm diameter) were seeded with bacterial suspensions by initially swabbing the center of plate then moving outward. Swabbing was continued at a right angle and then at an oblique angle to the first and second swabs. Disks were placed upon the seeded plates with sterile forceps. Plates were then incubated overnight at 37° C. and inhibition zone diameters were measured with a ruler and reported in millimeters.

[2] = tested on: VISA NRS3; assay: Disk diffusion assay (zone of inhibition); format: cell-based, Staphylococcus aureus; conditions: for zone of inhibition at 360 µg/disc: Staphylococcus aureus, 360 μg oritavancin, 3 h prediffusion, average of 2 disks, read-out: Average zone diameter
Text: as §1, §2, §3, §4, §5

[3] = tested on: VISA NRS402; assay: Disk diffusion assay (zone of inhibition); format: cell-based, Staphylococcus aureus; conditions: for zone of inhibition at 360 µg/disc: Staphylococcus aureus
Text: as §1, §2, §3, §4, §5

[4] = tested on: S. aureus isolates; assay: Disk diffusion assay, panel of isolates; format: cell-based, Staphylococcus aureus
Text: as §1, §2, §3, §4, §5

[5] = 25 μg (1.25 mg/ml) in 4% P80/Span 80 (1:1), dried overnight

## CN[C@H](CC(C)C)C(=O)N[C@H]1C(=O)N[C@@H](CC(N)=O)C(=O)N[C@H]2C(=O)N[C@H]3C(=O)N[C@H](C(=O)N[C@H](C(=O)O)c4cc(O)cc(O)c4-c4cc3ccc4O)[C@H](O[C@H]3C[C@](C)(N)[C@@H](O)[C@H](C)O3)c3ccc(c(Cl)c3)Oc3cc2cc(c3O[C@@H]2O[C@H](CO)[C@@H](O)[C@H](O)[C@H]2O[C@H]2C[C@](C)(NCc3ccc(-c4ccc(Cl)cc4)cc3)[C@@H](O)[C@H](C)O2)Oc2ccc(cc2Cl)[C@H]1O [oritavancin, N-(4-(4-chlorophenyl)benzyl)A82846B]
[1]; 336 h, ATCC 29213, Experiment 1, disks stored 14 days, no prediffusion
  zone of inhibition at 360 µg/disc: 15.8 ± 0.4 mm
[1]; ATCC 29213, 25 μg (1.25 mg/ml) in 4% P80/Span 80 (1:1), dried overnight, read-out: Inhibition zone diameter
  zone of inhibition at 25 µg/disc: 24 mm
[1]; ATCC 29213, Average, no prediffusion
  zone of inhibition at 360 µg/disc: 15.8 ± 0.4 mm
[1]; ATCC 29213, Average, prediffusion
  zone of inhibition at 360 µg/disc: 18.3 ± 0.4 mm
[1]; ATCC 29213, Experiment 1, disks stored 14 days, 3 h prediffusion at room temperature
  zone of inhibition at 360 µg/disc: 18.3 ± 0.4 mm
[1]; 0% P80 in CAMHA, no prediffusion
  zone of inhibition at 180 µg/disc: 15.3 mm
[1]; 0% P80 in CAMHA, prediffusion
  zone of inhibition at 180 µg/disc: 18.3 mm
[1]; 1% P80 in CAMHA, no prediffusion
  zone of inhibition at 180 µg/disc: 15.3 mm
[1]; 1% P80 in CAMHA, prediffusion
  zone of inhibition at 180 µg/disc: 18 mm
[2]; [5]
  Inhibition zone diameter: no zone
[2]; excipient 5% P80, disks stored 5 days at room temperature
  zone of inhibition at 360 µg/disc: 14 mm
[2]; excipient 10% HPCD, disks made same day
  zone of inhibition at 360 µg/disc: 16.8 mm
[3]; [5]
  Inhibition zone diameter: no zone
[3]; 360 μg in 5% P80, Average of experiments, no prediffusion, read-out: Zone diameter (mm ± SD)
  zone of inhibition at 360 µg/disc: 13.1 ± 0.3 mm
[3]; 360 μg in 5% P80, Average of experiments, prediffusion, read-out: Zone diameter (mm ± SD)
  zone of inhibition at 360 µg/disc: 14.5 ± 0.4 mm
[3]; 360 μg in 5% P80, Experiment 1, disks stored 14 days, 3 h prediffusion at room temperature, read-out: Zone diameter (mm ± SD)
  zone of inhibition at 360 µg/disc: 14.8 ± 0.4 mm
[3]; 360 μg in 5% P80, Experiment 2, disks stored 8 days, 3 h prediffusion at room temperature, read-out: Zone diameter (mm ± SD)
  zone of inhibition at 360 µg/disc: 14.3 ± 0.4 mm
[3]; 360 μg oritavancin, excipient 5% P80, disks stored 5 days at room temperature, 3 h prediffusion, average of 2 disks, read-out: Average zone diameter
  zone of inhibition at 360 µg/disc: 14.8 mm
[3]; 3 h, 360 μg oritavancin, excipient 10% HPCD, disks made same day, 3 h prediffusion, average of 2 disks, read-out: Average zone diameter
  zone of inhibition at 360 µg/disc: 17.5 mm
[3]; 192 h, 360 μg in 5% P80, Experiment 2, disks stored 8 days, no prediffusion, read-out: Zone diameter (mm ± SD)
  zone of inhibition at 360 µg/disc: 13 mm
[3]; 336 h, 360 μg in 5% P80, Experiment 1, disks stored 14 days, no prediffusion, read-out: Zone diameter (mm ± SD)
  zone of inhibition at 360 µg/disc: 13.3 ± 0.4 mm
[4]; 360 μg in 5% P80
  Zone diameter smaller for the two reduced-susceptibility isolates compared to MSSA and MRSA isolates exhibiting the same BMD MICs: approximately 2 mm
[4]; MSSA and MRSA strains, 360 μg in 5% P80
  Average increase of zone diameter by prediffusion: approximately 2.5 mm
[4]; Staphylococcus aureus, 19 wild-type clinical isolates, 20 μl of 1.25 mg/ml in 4% P80/Span 80 (1:1), calcium alginate swabs, read-out: Inhibition zone diameters
  zone of inhibition at 1250 µg/mL: 20 to 24 mm
[4]; VISA and oritavancin reduced-susceptibility isolates, 360 μg in 5% P80
  Average increase of zone diameter by prediffusion: approximately 1.1 mm
[4]; many S. aureus strains, different combinations of the alterations to the traditional assay
  Zone diameters: > 15 mm
